Source: patent publication US20070128217A1 (priority 2003, published 2007)

Tests used:
[1] = system: rabbit serum obtained by immunizing a rabbit with the SARS-CoV strain Frankfurt 1; type: binding; design: Binding of a rabbit serum to linear peptides / Binding of a rabbit serum to looped peptides / Rabbit serum linear peptides / Rabbit serum looped peptides / Binding of a rabbit serum to linear peptides of protein N of SARS-CoV Urbani (Rabbit serum linear peptides) / Binding of a rabbit serum to looped/cyclic peptides of protein N of SARS-CoV Urbani (Rabbit serum looped peptides): unit not given here
[2] = system: antibodies in sera from SARS patients (sera 1a, 1b, 2, 6, 37, 62, London, SARS-yellow, SARS-green); type: binding, human; design: Binding of serum 6 to linear peptides of protein X1 of SARS-CoV Urbani / Binding of serum 37 to linear peptides of protein X1 of SARS-CoV Urbani / Binding of serum 6 to looped/cyclic peptide (PEPSCAN-ELISA) / Binding of serum 37 to looped/cyclic peptide (PEPSCAN-ELISA) / Binding of serum 37 to looped/cyclic peptides of protein X1 of SARS-CoV Urbani / Binding of serum 6 to linear peptides of protein X2 / Binding of serum 37 to linear peptides of protein X2 / Binding of serum 37 to looped/cyclic peptides of protein X2 of SARS-CoV Urbani / Binding of serum 6 to linear peptides of protein M of SARS-CoV Urbani / Binding of serum 37 to linear peptides of protein M of SARS-CoV Urbani / Binding of serum 6 to looped/cyclic peptides of protein M of SARS-CoV Urbani / Binding of serum 37 to looped/cyclic peptides of protein M of SARS-CoV Urbani / Binding of serum 6 to linear peptides of protein X3 of SARS-CoV Urbani / Binding of serum 37 to linear peptides of protein X3 of SARS-CoV Urbani / Binding of serum 37 to looped/cyclic peptides of protein X3 of SARS-CoV Urbani / Binding of serum 6 to linear peptides of protein X4 of SARS-CoV Urbani / Binding of serum 37 to linear peptides of protein X4 of SARS-CoV Urbani / Binding of serum 37 to looped/cyclic peptides of protein X4 of SARS-CoV Urbani / Binding of serum 6 to linear peptides of protein X5 of SARS-CoV Urbani / Binding of serum 37 to linear peptides of protein X5 of SARS-CoV Urbani / Binding of serum 37 to looped/cyclic peptides of protein X5 of SARS-CoV Urbani / Binding of serum 6 to linear peptides of protein N of SARS-CoV Urbani / Binding of serum 37 to linear peptides of protein N of SARS-CoV Urbani / Binding of serum 6 to linear peptide (PEPSCAN-ELISA) / Binding of serum 1a to looped/cyclic peptides of protein N of SARS-CoV Urbani / Binding of serum 1b to looped/cyclic peptides of protein N of SARS-CoV Urbani / Binding of serum 2 to looped/cyclic peptides of protein N of SARS-CoV Urbani / Binding of serum 6 to looped/cyclic peptides of protein N of SARS-CoV Urbani / Binding of serum 37 to looped/cyclic peptides of protein N of SARS-CoV Urbani / Binding of serum 62 to looped/cyclic peptides of protein N of SARS-CoV Urbani / Binding of serum London to looped/cyclic peptides of protein N of SARS-CoV Urbani / Binding of serum SARS-green to looped/cyclic peptides of protein N of SARS-CoV Urbani: unit not given here
[3] = system: control sera (pooled serum of ten healthy LUMC hospital workers; commercial negative donor pooled serum from the Dutch bloodbank); type: binding, human; design: Binding of Control serum LUMC to linear peptides / Binding of Control serum Blood-bank to linear peptides / Binding of Control serum LUMC to looped peptides / Binding of Control Serum Blood-Bank to Looped peptides / Binding of Control serum LUMC to linear peptides of the protein M of SARS-CoV Urbani / Binding of Control serum Blood-bank to linear peptides of the protein M of SARS-CoV Urbani / Binding of Control serum LUMC to looped peptides of the protein M of SARS-CoV Urbani / Binding of Control Serum Blood-Bank to Looped peptides of the protein M of SARS-CoV Urbani: unit not given here
[4] = system: recombinant human anti-SARS-CoV antibody 03-018; type: binding; design: Binding of antibody 03-018 to linear peptides of the N protein of SARS-CoV Urbani / Binding of antibody 03-018 to looped/cyclic peptides of the N protein of SARS-CoV Urbani: unit not given here

Sequence	Binding of a rabbit serum to linear peptides of protein N of SARS-CoV Urbani (Rabbit serum linear peptides) [1]	Binding of a rabbit serum to looped/cyclic peptides of protein N of SARS-CoV Urbani (Rabbit serum looped peptides) [1]	Binding of serum 1a to linear peptides of protein N of SARS-CoV Urbani [2]	Binding of serum 1a to looped/cyclic peptides of protein N of SARS-CoV Urbani [2]	Binding of serum 1b to linear peptides of protein N of SARS-CoV Urbani [2]	Binding of serum 1b to looped/cyclic peptides of protein N of SARS-CoV Urbani [2]	Binding of serum 2 to linear peptides of protein N of SARS-CoV Urbani [2]	Binding of serum 2 to looped/cyclic peptides of protein N of SARS-CoV Urbani [2]	Binding of serum 6 to looped/cyclic peptides of protein N of SARS-CoV Urbani [2]	Binding of serum 37 to looped/cyclic peptides of protein N of SARS-CoV Urbani [2]	Binding of serum 62 to looped/cyclic peptides of protein N of SARS-CoV Urbani [2]	Binding of serum London to looped/cyclic peptides of protein N of SARS-CoV Urbani [2]	Binding of serum SARS-green to looped/cyclic peptides of protein N of SARS-CoV Urbani [2]	Binding of serum SARS-yellow to looped/cyclic peptides of protein N of SARS-CoV Urbani [2]	Binding of Control Serum Blood-Bank to Looped peptides [3]	Binding of Control serum Blood-bank to linear peptides [3]	Binding of Control serum LUMC to linear peptides [3]	Binding of Control serum LUMC to looped peptides [3]	Binding of antibody 03-018 to linear peptides of the N protein of SARS-CoV Urbani [4]	Binding of antibody 03-018 to looped/cyclic peptides of the N protein of SARS-CoV Urbani [4]	other results
NNTASWFTALTQHGK	0.1	0.3	0.2	0.2	0.1	0.1	0.2	0.2	0.1	0.4	0.2	0.2	0.1	0.1	0.5	0.6	0.7	0.4	0.1	0.2	Binding of serum 6 to linear peptides of protein N of SARS-CoV Urbani [2]: 0.1; Binding of serum 37 to linear peptides of protein N of SARS-CoV Urbani [2]: 0.7; Binding of serum 62 to linear peptides of protein N of SARS-CoV Urbani [2]: 0.6; Binding of serum London to linear peptides of protein N of SARS-CoV Urbani [2]: 0.4; Binding of serum SARS-green to linear peptides of protein N of SARS-CoV Urbani [2]: 0.4; Binding of serum SARS-yellow to linear peptides of protein N of SARS-CoV Urbani [2]: 0.5
YFYYLGTGPEASLPY	0.1	0.6	0.3	0.4	0.1	0.3	0.3	0.5	0.3	0.9	0.7	0.4	0.4	0.6	0.7	0.7	0.6	0.8	0.1	0.2	Binding of serum 6 to linear peptides of protein N of SARS-CoV Urbani [2]: 0.2; Binding of serum 37 to linear peptides of protein N of SARS-CoV Urbani [2]: 0.7; Binding of serum 62 to linear peptides of protein N of SARS-CoV Urbani [2]: 0.8; Binding of serum London to linear peptides of protein N of SARS-CoV Urbani [2]: 0.4; Binding of serum SARS-green to linear peptides of protein N of SARS-CoV Urbani [2]: 0.0; Binding of serum SARS-yellow to linear peptides of protein N of SARS-CoV Urbani [2]: 0.7
GTRNPNNNAATVLQL	0.1	0.6	0.3	0.4	0.1	0.3	0.3	0.7	0.4	0.9	0.9	0.5	0.6	0.5	1.0	0.8	0.8	0.8	0.1	0.3	Binding of serum 6 to linear peptides of protein N of SARS-CoV Urbani [2]: 0.2; Binding of serum 37 to linear peptides of protein N of SARS-CoV Urbani [2]: 0.7; Binding of serum 62 to linear peptides of protein N of SARS-CoV Urbani [2]: 0.7; Binding of serum London to linear peptides of protein N of SARS-CoV Urbani [2]: 0.5; Binding of serum SARS-green to linear peptides of protein N of SARS-CoV Urbani [2]: 0.3; Binding of serum SARS-yellow to linear peptides of protein N of SARS-CoV Urbani [2]: 0.6
VSGKGQQQQGQTVTK	0.2	0.4		0.9		0.3		0.5	0.3	0.5	0.5	0.5	0.5	0.6	0.7	1.0	1.4	0.9	0.1	0.3	Binding of serum 1a to linear peptide (PEPSCAN-ELISA) [2]: 1.2; Binding of serum 1b to linear peptide (PEPSCAN-ELISA) [2]: 0.6; Binding of serum 2 to linear peptide (PEPSCAN-ELISA) [2]: 0.6; Binding of serum 6 to linear peptide (PEPSCAN-ELISA) [2]: 0.4; Binding of serum 37 to linear peptide (PEPSCAN-ELISA) [2]: 0.9; Binding of serum 62 to linear peptide (PEPSCAN-ELISA) [2]: 1.2; Binding of serum London to linear peptide (PEPSCAN-ELISA) [2]: 0.6; Binding of serum SARS-green to linear peptide (PEPSCAN-ELISA) [2]: 0.5; Binding of serum SARS-yellow to linear peptide (PEPSCAN-ELISA) [2]: 1.0
